Measured values taken from patent US20250361241A1, “HPK1 INHIBITOR AND MEDICAL USE THEREOF” (Betta Pharmaceuticals Co., Ltd., priority 2022, published 2025).
Several values for one entry are separate records, joined by “and”; a condition that tells them apart may be missing. Equal entries are not always repeated.

Assays:
HPK1 [1] = biological target: T1, HPK1 (Homo sapiens (Human), UniProt Q92918); test: HPK1 enzyme activity detection (1 mM ATP system), ADP-Glo, Pharmacological Experiment 1; format: biochemical
Description: Pharmacological Experiment 1: HPK1 Enzyme Activity Detection (1 mM ATP System)
• (1) Take ADP-GloTMKinase Assay Kit (Promega, Cat. No. V9102) to prepare 4× kinase buffer. • (2) Compound gradient dilution: The compound to be tested is diluted 3-fold, and 11 gradient concentrations are set, and each concentration is set for duplicate well detection. Serial dilutions were made in a 384-well plate to the corresponding 100×final concentration solution, and then 0.1 μL was transferred to the 384-well reaction plate for testing using Echo. Transfer 0.1 μL of 100% DMSO to the smallest and largest wells. • (3) Prepare HPK1 enzyme working solution using 4× kinase buffer. • (4) Add 5 μL of HPK1 enzyme working solution to each well and 5 μL of 1× kinase buffer to the smallest well. Centrifuge at 1000 rpm for 1 min and incubate at 25° C. for 15 min. • (5) During the incubation period, prepare the substrate working solution using 4× kinase buffer. • (6) Add 5 μL of substrate working solution containing 1 mM ATP to each well of the reaction plate, centrifuge at 1000 rpm for 1 min, and incubate at 25° C. for 60 min. • (7) At the end of incubation, add 5 μL of ADP Glo reagent to each well. Centrifuge at 1000 rpm for 1 min and incubate at 25° C. for 60 min. • (8) Add 10 μL of detection solution to each well, centrifuge at 1000 rpm for 1 min, and incubate at 25° C. for 60 min. • (9) Read using EnVision.
Inhibition rate calculation formula:
[formula] • Vehicle: Reading value of DMSO control well • Blank: No enzyme well reading • Largest well: Reading value of DMSO control well • Minimum well: No enzyme well reading
The log value of the concentration was used as the X-axis and the percentage inhibition rate was used as the Y-axis. The “log (inhibitor) vs. response—variable slope” of the analysis software GraphPad Prism 5 was used to fit the dose-effect curve to obtain the IC 50 value of the compound's inhibition of kinase binding.
See Table 1 for the enzymatic IC 50 data of the example compounds on HPK1.

HPK1 [2] = biological target: T1, HPK1; test: HPK1 enzyme activity detection (1 mM ATP system), ADP-Glo with MBP substrate, Pharmacological Experiment 2; format: biochemical
In short: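 Compound in DMSO preincubated with HPK1 for 15 min at 25 °C, then reaction started with ATP (1 mM system) and MBP substrate for 60 min at 25 °C. ADP formed quantified by ADP-Glo luminescence; IC50 derived from percentage inhibition.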

Jurkat cells = test: Jurkat IL-2 secretion detection (anti-CD3/CD28 beads, ELISA); format: cell-based, human; details: for Maximum induction factor: IL-2 secretion, Jurkat cells; for EC3x: concentration for IL-2 secretion of Jurkat cells to reach 3 times the baseline, 20 h
Description: Pharmacological Experiment 5: Jurkat IL-2 Secretion Detection
• (1) Take the cultured Jurkat cells, adjust the density to 1×10^6 cells/mL, and inoculate them in a flat-bottom […] plate (Jet Biofil, TCP011096), with 100 μL per well, • (2) Add 50 μL of the test compound to each well and incubate at 37° C. for 30 min; • (3) Take human anti-CD3/CD28 magnetic beads (Miltenyi, 130-091-441), wash once with RPMI-1640 complete medium, and adjust the density to 4×106 beads/mL for later use; • (4) After the compound incubation, 50 μL of anti-human CD3/CD28 magnetic beads were added to each well and cultured at 37° C. for 20 h, • (5) The cell culture supernatant was obtained and the IL-2 secretion was detected using the Human IL-2 DuoSet ELISA kit (R&D, DY008); • (6) The log value of the concentration was used as the X-axis and the IL-2 secretion was used as the Y-axis. The “log (agonist) vs. response-variable slope” equation of the analysis software GraphPad Prism 7 was used to fit the dose-effect curve, thereby obtaining the […] and the […]

GLK = GLK (Homo sapiens (Human), UniProt Q8IVH8); test: GLK kinase assay (1 mM ATP system), ADP-Glo; format: biochemical
In short: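 GLK kinase reaction with 1 mM ATP and MBP substrate ran 60 min at 25 °C after 15 min preincubation of enzyme with compound. ADP formed was detected by ADP-Glo luminescence; percent inhibition used to derive IC50.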

[3] = test system: human peripheral blood mononuclear cells; test: Detection of IFN-γ secretion in human peripheral blood mononuclear cells (anti-CD3/CD28 beads, ELISA); format: cell-based; details: for Maximum induction factor: IFN-γ secretion, human PBMC; for EC3x: concentration for IFN-γ secretion of human PBMC to reach 3 times the baseline, 3 days
Description: Pharmacological Experiment 4: Detection of IFN-γ Secretion in Human Peripheral Blood Monocytes
• (1) Take human peripheral blood mononuclear cells frozen in liquid nitrogen, thaw in a 37° C. water bath, add 5 mL of preheated RPMI-1640 complete medium (containing 10% fetal bovine serum and penicillin/streptomycin), centrifuge at 500 g for 10 minutes, and discard the supernatant; • (2) Resuspend the cells in RPMI-1640 complete medium, adjust the density to 5×10^6 cells/mL, inoculate in a low-adhesion 6-well plate (Corning, 3471), and culture at 37° C. for 2 days; • (3) Collect cultured human peripheral blood mononuclear cells, centrifuge at 500 g for 10 min, and discard the supernatant; • (4) Resuspend the cells in RPMI-1640 complete medium, adjust the density to 1×10^6 cells/mL, and inoculate them in a round-bottom 96-well plate (Jet Biofil, TCP-002-096), with 100 μL per well; • (5) Add 50 μL of the test compound to each well and incubate at 37° C. for 30 min; • (6) Take human anti-CD3/CD28 magnetic beads (Miltenyi, 130-091-441), wash once with RPMI-1640 complete medium, and adjust the density to 0.5×106 beads/mL for later use; • (7) After the compound incubation, 50 μL of anti-human CD3/CD28 magnetic beads were added to each well and cultured at 37° C. for 3 days, • (8) The cell culture supernatant was obtained and the IFN-γ secretion was detected using the Human IFN-gamma DuoSet ELISA kit (R&D, DY285B-05); • (9) The log value of concentration was used as the X-axis and the IFN-γ secretion amount was used as the Y-axis. The “log (agonist) vs. response−variable slope” equation of the analysis software GraphPad Prism 7 was used to fit the dose-effect curve, thereby obtaining the EC3x value and the maximum induction factor of the compound for the secretion of IFN-γ from human peripheral blood mononuclear cells to reach 3 times the baseline.

[4] = PK study of compound in dogs; format: in vivo; details: Beagle dog, PO 5 mg/kg, DMSO/Solutol/saline
Description: Pharmacological Experiment 6: PK Study of Compound in Dogs The compound was mixed with a solvent of saline or 10% DMSO/5% Solutol/85% saline or 10% DMSO/10% Solutol/80% saline (specific solvents are shown in the table below), vortexed and sonicated to prepare a clear oral solution. […] The drug concentration was analyzed by LC-MS/MS method, and the pharmacokinetic parameters were calculated using Phoenix WinNolin software (Pharsight, USA).

T1 sequence (Q92918 whole entry, species assumed): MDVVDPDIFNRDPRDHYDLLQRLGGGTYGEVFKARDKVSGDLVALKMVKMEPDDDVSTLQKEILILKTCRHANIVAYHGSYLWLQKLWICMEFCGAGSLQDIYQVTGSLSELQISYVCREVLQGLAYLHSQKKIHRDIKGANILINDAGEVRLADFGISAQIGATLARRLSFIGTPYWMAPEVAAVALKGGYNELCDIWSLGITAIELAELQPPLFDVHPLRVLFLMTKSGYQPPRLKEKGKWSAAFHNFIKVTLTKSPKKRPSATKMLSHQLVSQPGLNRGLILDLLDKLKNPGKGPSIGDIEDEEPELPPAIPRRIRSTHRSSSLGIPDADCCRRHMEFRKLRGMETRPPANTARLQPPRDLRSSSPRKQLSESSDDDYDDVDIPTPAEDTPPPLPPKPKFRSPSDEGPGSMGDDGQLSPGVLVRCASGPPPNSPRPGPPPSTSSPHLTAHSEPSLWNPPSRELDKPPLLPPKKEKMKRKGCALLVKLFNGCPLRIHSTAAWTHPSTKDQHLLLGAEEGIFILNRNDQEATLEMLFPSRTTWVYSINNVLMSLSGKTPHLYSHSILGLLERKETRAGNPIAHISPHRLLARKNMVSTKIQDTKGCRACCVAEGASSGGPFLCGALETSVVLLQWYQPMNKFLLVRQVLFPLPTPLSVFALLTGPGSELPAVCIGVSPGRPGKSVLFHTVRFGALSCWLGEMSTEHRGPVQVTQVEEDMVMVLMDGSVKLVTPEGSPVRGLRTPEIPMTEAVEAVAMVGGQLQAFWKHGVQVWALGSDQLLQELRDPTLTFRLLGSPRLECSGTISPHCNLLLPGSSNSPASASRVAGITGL
Sequence of GLK (Q8IVH8 whole entry, species assumed): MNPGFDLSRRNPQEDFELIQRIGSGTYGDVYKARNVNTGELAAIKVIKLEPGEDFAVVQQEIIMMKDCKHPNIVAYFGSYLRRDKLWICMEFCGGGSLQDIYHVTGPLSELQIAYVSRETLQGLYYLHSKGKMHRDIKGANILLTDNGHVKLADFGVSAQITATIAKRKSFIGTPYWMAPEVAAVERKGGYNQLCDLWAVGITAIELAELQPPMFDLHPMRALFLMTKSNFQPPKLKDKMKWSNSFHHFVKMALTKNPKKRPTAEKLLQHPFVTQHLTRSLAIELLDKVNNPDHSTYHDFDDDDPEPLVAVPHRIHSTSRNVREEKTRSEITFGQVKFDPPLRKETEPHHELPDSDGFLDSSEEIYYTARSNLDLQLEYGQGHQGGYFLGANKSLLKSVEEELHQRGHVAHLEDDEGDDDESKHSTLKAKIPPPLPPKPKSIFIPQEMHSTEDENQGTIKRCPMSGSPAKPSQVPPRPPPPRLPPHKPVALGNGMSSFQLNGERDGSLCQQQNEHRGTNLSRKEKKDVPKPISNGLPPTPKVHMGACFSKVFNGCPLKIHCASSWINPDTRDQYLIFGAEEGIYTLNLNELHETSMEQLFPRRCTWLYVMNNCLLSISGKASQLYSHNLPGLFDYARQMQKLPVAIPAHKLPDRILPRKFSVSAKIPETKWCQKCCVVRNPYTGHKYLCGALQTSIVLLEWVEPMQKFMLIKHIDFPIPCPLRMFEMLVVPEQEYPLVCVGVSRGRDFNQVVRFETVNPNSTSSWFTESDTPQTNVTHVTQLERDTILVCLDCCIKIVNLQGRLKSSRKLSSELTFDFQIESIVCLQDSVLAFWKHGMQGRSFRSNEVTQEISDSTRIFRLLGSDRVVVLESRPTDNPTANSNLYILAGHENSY

IC50 (HPK1 [2]) [µM]	IC50 (GLK) [µM]	SMILES	Maximum induction factor [3]	EC3x [3]	further results
0.0048	–	O=C1NCc2c(-c3cnc4cc(F)ccn34)ccc(Nc3ccc4c(n3)C(N3CCCC3)CC43CCOCC3)c21 (centres unmarked) [Compound 40, 4-(7-FLUOROIMIDAZO[1,2-A]PYRIDIN-3-YL)-7-((7-(PYRROLIDIN-1-YL)-2′,3′,5′,6,6′,7-HEXAHYDROSPIRO[B]PYRIDIN-5,4′-PYRAN]-2-YL)AMINO)ISOINDOLIN-1-ONE]	–	–	Maximum induction factor (Jurkat cells): 11.5; EC3x (Jurkat cells): 163 nM
0.00327	0.293	O=C1NCc2c(-c3cnc4cc(F)ccn34)ccc(Nc3ccc4c(n3)C(N3CC[C@@H](F)C3)CC43CCOCC3)c21 (stereo partly drawn) [Compound 71, 4-(7-FLUOROIMIDAZOLO[1,2-A]PYRIDIN-3-YL)-7-((7-((R)-3-FLUOROPYRROLIDIN-1-YL)-2′,3′,5′,6,6′,7-HEXA HYDROSPIRO[CYCLOPENTYL[B]PYRIDIN-5,4′-PYRAN]-2-YL)AMINO)ISOINDOL-1-ONE]	16.6	76 nM	–
0.00467	0.291	O=C1NCc2c(-c3cnc4cc(Cl)ccn34)ccc(Nc3ccc4c(n3)C(N3CCCC3)CC43CCOCC3)c21 (centres unmarked) [Compound 103]	5.3	123 nM	–
0.00349	0.551	CC(C)NC1CC2(CCOCC2)c2ccc(Nc3ccc(-c4cnc5cc(F)ccn45)c4c3C(=O)NC4)nc21 (centres unmarked) [Compound 104]	–	–	Maximum induction factor (Jurkat cells): 8.3; EC3x (Jurkat cells): 172 nM
0.00355	1.2	O=C1NCc2c(-c3cnc4cc(F)ccn34)ccc(Nc3ccc4c(n3)C(NC3CCOC3)CC43CCOCC3)c21 (centres unmarked) [Compound 107]	8.8	296 nM	–
0.00335	0.679	Cc1ccn2c(-c3ccc(Nc4ccc5c(n4)CCCC54CCOCC4)c4c3CNC4=O)cnc2c1 [Compound 121]	19.4	140 nM	–
0.00321	0.455	O=C1NCc2c(-c3cnc4cc(Cl)ccn34)ccc(Nc3ccc4c(n3)CCCC43CCOCC3)c21 [Compound 122]	16.2	56 nM	–
0.00634	0.97	CN(C)C1CC2(CCOC2)c2ccc(Nc3ccc(-c4cnc5cc(Cl)ccn45)c4c3C(=O)NC4)nc21 (centres unmarked) [Compound 151]	6.5	53 nM	–
0.00357	0.311	Cc1ccn2c(-c3ccc(Nc4ccc5c(n4)C(N(C)C)CC54CCOCC4)c4c3CNC4=O)cnc2c1 (centres unmarked) [Compound 161]	6.4	67 nM	–

Continued, compound first:

SMILES	IC50 (HPK1 [2]) [µM]	IC50 (GLK) [µM]	Maximum induction factor [3]	EC3x [3]	further results
CN(C)C1CCC2(CCOCC2)c2ccc(Nc3ccc(-c4cnc5cc(F)ccn45)c4c3C(=O)NC4)cc21 (centres unmarked) [Compound 1]	–	–	–	–	IC50 (HPK1 [1]): 0.0612 µM
CN(C)C1CC2(CCOCC2)c2ccc(Nc3ccc(-c4cnc5cc(F)ccn45)c4c3C(=O)NC4)cc21 (centres unmarked) [Compound 9]	–	–	–	–	IC50 (HPK1 [1]): 0.205 µM
Cc1cc(Nc2cnc(-c3ccnc4c3ccn4C)c3c2C(=O)NC3)cc2c1C1(CCOCC1)CN(C)C2 [Compound 14]	–	–	–	–	IC50 (HPK1 [1]): 0.0548 µM
Cc1cc(Nc2ccc(-c3cnc4cc(F)ccn34)c3c2C(=O)NC3)cc2c1C1(CCOCC1)CN(C)C2 [Compound 15]	–	–	–	–	IC50 (HPK1 [1]): 0.00614 µM
Cc1cc(Nc2ccc(-c3cnc4cc(F)ccn34)c3c2C(=O)NC3)cc2c1C1(CC1)CN(C)C2 [Compound 16]	–	–	–	–	IC50 (HPK1 [1]): 0.0206 µM
O=C1NCc2c(-c3cnc4cc(F)ccn34)ccc(Nc3ccc4c(n3)C(N3CC[C@H](F)C3)CC43CCOCC3)c21 (some centres unmarked) [Compound 75]	0.00278	0.273	8.3 and 10.5	64 nM and 119 nM	–
O=C1NCc2c(-c3cnc4cc(F)ccn34)ccc(Nc3ccc4c(n3)C(NC3CCOCC3)CC43CCOCC3)c21 (centres unmarked) [Compound 108]	0.00329	1.05	–	–	Maximum induction factor (Jurkat cells): 8.4; EC3x (Jurkat cells): 448 nM
O=C1NCc2c(-c3cnc4cc(OC(F)F)ccn34)ccc(Nc3ccc4c(n3)CNCC43CCOCC3)c21 [Compound 123]	0.0121	0.896	26.8	214 nM	–
O=C1NCc2c(-c3cnc4cc(F)ccn34)ccc(Nc3ccc4c(n3)CCCC43CCC3)c21 [Compound 125]	0.0111	1.2	20.2	173 nM	–
O=C1NCc2c(-c3cnc4cc(F)ccn34)ccc(Nc3ccc4c(n3)CCCC43CCCC3)c21 [Compound 127]	0.00523	0.767	19.1	74.6 nM	–
CN(C)[C@@H]1CC2(CCOCC2)c2ccc(Nc3ccc(-c4cnc5cc(OC(F)F)ccn45)c4c3C(=O)NC4)nc21 [Compound 158A, (R)-4-(7-(DIFLUOROMETHOXY)IMIDAZOL 1,2-A]PYRIDIN-3-YL)-7-((7-DIMETHYLAMINO)-2′,3′,5′,6,6′,7-HEXAHYDROSPIRO[CYCLOPENTADIENYL[B]PYRIDINE-54′-PYRAN]-2-YL)AMINO)ISOINDOLIN-1-ONE]	0.003	0.206	10.8	167 nM	Bioavailability F % [4]: 43%; PO Plasma AUC [4]: 2704 ng·h/mL; T1/2 [4]: 6.06 h
CN(C)C1CC2(CCOCC2)c2ccc(Nc3ccc(-c4cnc5cc(C6CC6)ccn45)c4c3C(=O)NC4)nc21 (centres unmarked) [Compound 164, 4-(7-CYCLOPROPYLIMIDAZO[1,2-A]PYRIDIN-3-YL)-7-((7-(DIMETHYLAMINO)-2′,3′,5′,6,6′,7-HEXAHYDROSPIRO[CYCLOPENTANE[B]PYRIDINE-5,4′-PYRAN]-2-YL)AMINO)ISOINDOL-1-ONE]	0.0106	0.105	9.2	458 nM	–
